From US6767991B1, “Hepatitis C inhibitor peptides” (priority 1997, dated 2004)
Like-named read-outs stand apart in the source and are kept apart here. *1 amine or outer side, *2 acyl side, *3 side chain or, on linkers, in order; H or OH if unused. Where a SMILES comes first, the peptide text is derived from it. Where no end group is shown, it is not given here. [ ]: non-standard residue; d: D form. The star is where a group is joined. Acca(2-Et,1R,2R) = CC[C@@H]1C[C@]1(N)C(=O)O; CH2(1-naphthyl) = c1ccc2c(C*)cccc2c1; Glutaryl = O=C(CCCC(=O)[*:2])[*:1]; Hyp = O=C(O)[C@@H]1C[C@@H](O)CN1; NMeI = CC[C@H](C)[C@H](NC)C(=O)O; Chg = N[C@H](C(=O)O)C1CCCCC1; Suc = O=C(CCC(=O)[*:2])[*:1]; Ac5c = NC1(C(=O)O)CCCC1; Nva = CCC[C@H](N)C(=O)O; X1 = c1ccc2cc(C*)ccc2c1; Ac3c = NC1(C(=O)O)CC1; OBn = c1ccc(CO*)cc1; Bn = c1ccc(C*)cc1

Target: T1, HCV NS3 protease type 1b/NS4A cofactor peptide (Hepatitis C virus genotype 1b, UniProt P26663)
T1 construct: recombinant HCV NS3 protease (amino acid 1027 to 1206) was cloned in the pET11d bacterial expression vector; made in house; host or cells: E. coli BL21(DE3)pLysS
Test: Recombinant HCV NS3 protease/NS4A cofactor peptide radiometric assay
Type: biochemical, HCV genotype 1b
Conditions: read-out: IC50
Description: Recombinant HCV NS3 Protease/NS4A Cofactor Peptide Radiometric Assay.
The enzyme was stored at −80° C., thawed on ice and diluted just prior to use in the assay buffer containing the NS4A cofactor peptide.
The substrate used for the NS3 protease/NS4A cofactor peptide radiometric assay, DDIVPC-SMSYTW [SEQ. ID NO. 2], is cleaved between the cysteine and the serine residues by the enzyme. The sequence DDIVPC-SMSYTW [SEQ. ID NO. 2] corresponds to the NS5A/NS5B natural cleavage site in which the cysteine residue in P2 has been substituted for a proline. The peptide substrate DDIVPC-SMSYTW [SEQ. ID NO. […] ID NO. […] [SEQ. ID NO. 5] (molar ratio enzyme: cofactor 1:100) in the absence or presence of inhibitors. The separation of substrate from products is performed by adding avidin-coated agarose beads to the assay mixture followed by filtration. […] ID NO. 4] product found in the filtrate allows for the calculation of the percentage of substrate conversion and of the percentage of inhibition.
Tris and Tris-HCl (UltraPure) were obtained from Gibco-BRL. Glycerol (UltraPure), MES and BSA were purchased from Sigma. TCEP was obtained from Pierce, DMSO from Aldrich and NaOH from Anachemia.
Assay buffer: 50 mM Tris HCl, pH 7.5, 30% (w/v) glycerol, 1 mg/mL BSA, 1 mM TCEP (TCEP added just prior to use from a 1 M stock solution in water).
Substrate: […] [SEQ. ID NO.
ID NO. 3] (˜1 nM final concentration).
The assay was performed in a 96-well polypropylene plate from Costar. Each well contained:
20 μL substrate/tracer in assay buffer;
10 μL±inhibitor in 20% DMSO/assay buffer;
10 μL NS3 protease 1b/NS4 cofactor peptide (molar ratio 1:100).
Blank (no inhibitor and no enzyme) and control (no inhibitor) were also prepared on the same assay plate.
The enzymatic reaction was initiated by the addition of the enzyme/NS4A peptide solution and the assay mixture was incubated for 40 min at 23° C. under gentle agitation. Ten (10) μL of 0.5N NaOH were added and 10 μL 1 M MES, pH 5.8 were added to quench the enzymatic reaction.
Twenty (20) μL of avidin-coated agarose beads (purchased from Pierce) were added in a Millipore MADP N65 filtration plate. The quenched assay mixture was transferred to the filtration plate, and incubated for 60 min at 23° C. under gentle agitation.
The plates were filtered using a Millipore MultiScreen Vacuum Manifold Filtration apparatus, and 40 μL of the filtrate was transferred in an opaque 96-well plate containing 60 μL of scintillation fluid per well.
The % inhibition was calculated with the following equation:
100-[(countsinh-countsblank)/(countsctl-countsblank)×100]

[1] = Table 2, unmarked values: NS3 protease/NS4A cofactor peptide radiometric assay
[2] = Table 1, unmarked values: NS3 protease/NS4A cofactor peptide radiometric assay

T1 sequence (P26663 1027-1206, other chains not shown): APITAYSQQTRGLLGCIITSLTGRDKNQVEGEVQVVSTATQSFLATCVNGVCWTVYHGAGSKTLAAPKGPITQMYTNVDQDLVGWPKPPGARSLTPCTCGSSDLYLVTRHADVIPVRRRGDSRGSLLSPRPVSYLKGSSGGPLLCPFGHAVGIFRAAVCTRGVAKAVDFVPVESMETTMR

Compound | IC50 [1] | IC50 [2] | also measured
CC(=O)N[C@H](C(=O)N[C@H](C(=O)N1C[C@H](Oc2ccccc2Br)C[C@H]1C(=O)NC1(C(=O)O)CC1)C(C)C)C1CCCCC1 [compound 239] | 27 µM | – | –
CC[C@H](C)[C@H](NC(=O)[C@H](CC(=O)O)NC(=O)CCC(=O)O)C(=O)N[C@H](C(=O)N1CCC[C@H]1C(=O)N[C@@H](CS)C(=O)O)C(C)C [compound 103] (Suc-DIVPC-OH) | – | 26 µM | –
CCC[C@H](NC(=O)[C@@H]1CCCN1C(=O)[C@@H](NC(=O)[C@@H](NC(=O)[C@H](CC(=O)O)NC(=O)CCC(=O)O)[C@@H](C)CC)C(C)C)C(=O)O [compound 130] (Suc-DIVP[Nva]-OH) | – | 123 µM | –
CCC[C@H](NC(=O)[C@@H]1CCCN1C(=O)[C@@H](NC(=O)[C@@H](NC(=O)[C@@H](CCC(=O)O)NC(=O)[C@H](CC(=O)O)NC(C)=O)[C@@H](C)CC)C(C)C)C(=O)O [compound 128] (Ac-D[dE]IVP[Nva]-OH) | – | 7.4 µM | –
CC[C@H](C)[C@H](NC(C)=O)C(=O)N[C@H](C(=O)N1C[C@H](OCc2cccc3ccccc23)C[C@H]1C(=O)NC1(C(=O)O)CC1)C(C)C [compound 262] (Ac-IV[Hyp](CH2(1-naphthyl))[Ac3c]-OH) | 40 µM | – | –
CCC[C@H](NC(=O)[C@@H]1C[C@@H](OCc2cccc3ccccc23)CN1C(=O)[C@@H](NC(=O)[C@@H](NC(=O)[C@H](CC(=O)O)NC(=O)[C@H](CC(=O)O)NC(C)=O)[C@@H](C)CC)C(C)C)C(=O)O [compound 207] (Ac-DDIV[Hyp](CH2(1-naphthyl))[Nva]-OH) | 0.39 µM | – | –
CCC[C@H](NC(=O)[C@@H]1C[C@@H](OCc2ccc3ccccc3c2)CN1C(=O)[C@@H](NC(=O)[C@@H](NC(=O)[C@H](CC(=O)O)NC(=O)[C@H](CC(=O)O)NC(C)=O)[C@@H](C)CC)C(C)C)C(=O)O [compound 208] (Ac-DDIV[Hyp](X1)[Nva]-OH) | 0.71 µM | – | –
CC[C@@H]1C[C@]1(NC(=O)[C@@H]1C[C@@H](OCc2ccccc2)CN1C(=O)[C@@H](NC(=O)[C@@H](NC(=O)[C@@H](CCC(=O)O)NC(=O)[C@H](CC(=O)O)NC(C)=O)[C@@H](C)CC)C(C)C)C(=O)O [compound 517] (Ac-D[dE]IV[Hyp](Bn)[Acca(2-Et,1R,2R)]-OH) | – | – | IC50 (Table 5, first line of the cell, NS3 protease/NS4A cofactor peptide radiometric assay (Example 38)): 0.075 µM
CCC[C@H](NC(=O)[C@@H]1C[C@@H](OCc2ccccc2)CN1C(=O)[C@@H](NC(=O)[C@@H](NC(=O)[C@@H](CCC(=O)O)NC(=O)[C@H](CC(=O)O)NC(C)=O)C1CCCCC1)C(C)C)C(=O)O [compound 211] (Ac-D[dE][Chg]V[Hyp](Bn)[Nva]-OH) | 0.12 µM | – | –
CC[C@H](C)[C@H](NC(=O)[C@@H](CC(=O)O)NC(=O)[C@H](CC(=O)O)NC(C)=O)C(=O)N[C@H](C(=O)N1CCC[C@H]1C(=O)N[C@@H](CS)C(=O)O)C(C)C [compound 104] (Ac-D[dD]IVPC-OH) | – | 8.5 µM | –
CC[C@H](C)[C@H](NC(=O)[C@H](CC(=O)O)NC(=O)[C@H](CC(=O)O)NC(C)=O)C(=O)N[C@H](C(=O)N1CCC[C@H]1C(=O)NC1(C(=O)O)CCCC1)C(C)C [compound 125] (Ac-DDIVP[Ac5c]-OH) | – | 210 µM | –
CCC[C@H](NC(=O)[C@@H]1CCCN1C(=O)[C@@H](NC(=O)[C@@H](NC(=O)[C@H](CC(=O)O)NC(=O)[C@H](CC(=O)O)NC(C)=O)[C@@H](C)CC)C(C)C)C(=O)O (single isomer, unassigned) [compound 273] | 17.5 µM | – | –
Ac-EDIVPC [compound 102] | – | 59 µM | –
CCC[C@H](NC(=O)[C@@H]1C[C@@H](OCc2cccc3ccccc23)CN1C(=O)[C@@H](NC(=O)[C@H]([C@@H](C)CC)N(C)C(=O)CCC(=O)O)C(C)C)C(=O)O [compound 220] (Suc-[NMeI]V[Hyp](CH2(1-naphthyl))[Nva]-OH) | 31 µM | – | –
CC(C)[C@H](NC(=O)[C@@H](NC(=O)CCCC(=O)O)C1CCCCC1)C(=O)N1C[C@H](OCc2cccc3ccccc23)C[C@H]1C(=O)NC1(C(=O)O)CC1 [compound 226] (Glutaryl-[Chg]V[Hyp](CH2(1-naphthyl))[Ac3c]-OH) | 0.76 µM | – | –
CCC[C@H](NC(=O)[C@@H]1C[C@@H](OCc2ccccc2)CN1C(=O)[C@@H](NC(=O)[C@@H](NC(=O)[C@H](NC(=O)[C@H](CC(=O)O)NC(C)=O)C(C)C)[C@@H](C)CC)C(C)C)C(=O)O [compound 202] (Ac-D[dV]IV[Hyp](Bn)[Nva]-OH) | 0.93 µM | – | –
CCC[C@H](NC(=O)[C@@H]1C[C@@H](OCc2cccc3ccccc23)CN1C(=O)[C@@H](NC(=S)[C@@H](NC(=O)CNC(C)=O)[C@@H](C)CC)C(C)C)C(=O)O [compound 236] | 4 µM | – | –
CC(=O)N[C@H](C(=O)N[C@H](C(=O)N1C[C@H](OCc2ccccc2)C[C@H]1C(=O)NC1(C(=O)O)CC1)C1CCCCC1)C1CCCCC1 [compound 234] (Ac-[Chg][Chg][Hyp](Bn)[Ac3c]-OH) | 41 µM | – | –
CCC[C@H](NC(=O)[C@@H]1C[C@@H](OCc2cccc3ccccc23)CN1C(=O)[C@@H](NC(=O)[C@@H](NC(=O)CCCC(=O)O)[C@@H](C)CC)C(C)C)C(=O)O [compound 222] (Glutaryl-IV[Hyp](CH2(1-naphthyl))[Nva]-OH) | 20 µM | – | –
CCC[C@H](NC(=O)[C@@H]1C[C@@H](OCc2cccc3ccccc23)CN1C(=O)[C@@H](NC(=O)[C@@H](NC(=O)[C@H](CC(=O)O)NC(C)=O)[C@@H](C)CC)C(C)C)C(=O)O [compound 219] (Ac-DIV[Hyp](CH2(1-naphthyl))[Nva]-OH) | 2.3 µM | – | –
CC(=O)N[C@@H](CC(=O)O)C(=O)N[C@@H](CCC(=O)O)C(=O)N[C@H](C(=O)N[C@H](C(=O)N[C@@H](CCC(=O)OCc1ccccc1)C(=O)NC1(C(=O)O)CC1)C(C)C)C1CCCCC1 [compound 133] (Ac-DE[Chg]VE(OBn)[Ac3c]-OH) | – | 39 µM | –
